{"source": "patent US9487530B2", "about": "“Transient protection of normal cells during chemotherapy” (G1 Therapeutics, Inc., priority 2013, dated 2016)", "key": {"[1]": {"system": "RB-negative SCLC cell lines (H69, H82, H209, H345, NCI417, SHP-77)", "experiment": "EdU proliferation, RB-negative SCLC cell lines", "format": "cell-based, human", "conditions": "24 hours treatment", "procedure": "(§1) The effect of Cdk4/6 inhibition on proliferation was measured by EdU incorporation. An RB-intact, Cdk4/6-dependent cell line (WM2664 or tHS68) and a panel of RB-negative SCLC cell lines (H69, H82, H209, H345, NCI417, or SHP-77) were analyzed for growth inhibition by the various CDK4/6 inhibitors."}, "[2]": {"system": "Rb-positive cell line (WM2664 or tHS68)", "experiment": "EdU proliferation, RB-intact Cdk4/6-dependent cell line", "format": "cell-based", "conditions": "24 hours treatment", "procedure": "as §1"}, "[3]": {"experiment": "Mouse pharmacokinetics, oral gavage and intravenous", "format": "in vivo"}, "bone marrow progenitors": {"system": "bone marrow progenitors", "experiment": "Carboplatin-induced cytotoxicity in the bone marrow", "format": "in vivo, mouse", "conditions": "150 mg/kg oral gavage plus 90 mg/kg carboplatin i.p.; 24 hours", "procedure": "To assess the effect of transient CDK4/6 inhibition by Compound GG on carboplatin-induced cytotoxicity in the bone marrow, FVB/n mice (n=3 per group) were treated with vehicle control, 90 mg/kg carboplatin by intraperitoneal injection, or 150 mg/kg Compound GG by oral gavage plus 90 mg/kg carboplatin by intraperitoneal injection. 24 hours after treatment bone marrow was harvested and the percent of cycling bone marrow progenitors was measured by EdU incorporation as explained earlier. […] EdU incorporation in control animals was normalized to 100% and compared to EdU incorporation for bone marrow from carboplatin treated animals or carboplatin and Compound GG treated animals."}, "HSPCs": {"system": "HSPCs", "experiment": "Bone marrow HSPC proliferation by EdU incorporation and flow cytometry", "format": "in vivo, mouse", "conditions": "for EdU incorporation into HSPCs compared to control: 150 mg/kg oral gavage, 12 and 24 hours, FIG. 6A", "procedure": "Mice were then sacrificed at the indicated times (0, 12, 24, 36, or 48 hours following compound administration), and bone marrow was harvested (n=3 mice per time point), as previously described (Johnson et al. J. Clin. Invest. (2010) 120(7), 2528-2536). Four hours before the bone marrow was harvested, mice were treated with 100 μg of EdU by intraperitoneal injection (Invitrogen). Bone marrow mononuclear cells were harvested and immunophenotyped using previously described methods and percent EdU positive cells were then determined (Johnson et al. J. Clin. Invest. (2010) 120(7), 2528-2536). In brief, HSPCs were identified by expression of lineage markers (Lin−), ScaI (S+), and c-Kit (K+).\nFour hours before animals were sacrificed and the bone marrow was harvested, mice were treated with 100 μg of EdU by intraperitoneal injection. Three mice per group were sacrificed at 12 hours and the remaining three animals per group were sacrificed at 24 hours. Results are shown in FIG. 6A as the ratio of EdU positive cells for treated animals at 12 or 24 hour time points compared to control.\nFurther experiments were completed with Compound T examining dose response and longer periods of compound treatment. […] […].\nBoth compounds were administered at 150 mg/kg by oral gavage. One hour prior to harvesting bone marrow, EdU was IP injected to label cycling cells. Bone marrow was harvested at 12, 24, 36, and 48 hours after compound treatment and the percentage of EdU positive HSPC cells was determined at each time point."}, "[4]": {"system": "HSPC (LKS+) and myeloid progenitor cells (LKS-)", "conditions": "single 150 mg/kg oral gavage; FIG. 5; cited from earlier work"}, "[5]": {"experiment": "PD0332991 pharmacokinetics and HSPC arrest in humans", "format": "in vivo, human", "conditions": "single administration", "procedure": "When calculated half-life was longer than the duration of the experiment, the half-life was expressed as >the longest incubation time. The calculated half-life is also listed in parentheses. […] The timely resumption of cellular proliferation is necessary for tissue repair, and therefore an overly long period of arrest is undesirable in healthy cells such as HSPCs. The characteristics of a CDK4/6 inhibitor that dictate its arresting duration are its pharmacokinetic (PK) and enzymatic half-lives. Once initiated, a G1-arrest in vivo will be maintained as long as circulating compound remains at an inhibitory level, and as long as the compound engages the enzyme. […] […]. […] […]. These observations may explain the severe granulocytopenia seen with PD0332991 in the clinic."}, "[6]": {"system": "Renal Proximal Tubule Epithelial Cells (Rb-positive)", "experiment": "Cellular wash-out experiment, renal proximal tubule epithelial cells", "format": "cell-based, human", "conditions": "300 nM; compared to cells treated with compounds T, Q, GG, or U", "procedure": "Alternatively, the same experiment was done using normal Renal Proximal Tubule Epithelial Cells (Rb-positive) obtained from American Type Culture Collection (ATCC, Manassas, Va.). Cells were grown in an incubator at 37° C. in a humidified atmosphere of 5% CO2 in Renal Epithelial Cell Basal Media (ATCC) supplemented with Renal Epithelial Cell Growth Kit (ATCC) in 37° C. humidified incubator.\nUpon harvesting cells, samples were stained with propidium iodide staining solution and samples run on Dako Cyan Flow Cytometer. The fraction of cells in G0-G1 DNA cell cycle versus the fraction in S-phase DNA cell cycle was determined using FlowJo 7.2.2 analysis."}, "[7]": {"conditions": "in humans; cited from earlier work"}, "[8]": {"conditions": "in mice; cited from earlier work"}, "CDK4/CycD1": {"target": "T1, CDK4/CycD1 (Homo sapiens, UniProt P11802)", "T1 construct": "Nanosyn (ran the assay as a service)", "T1 sequence (P11802 whole entry, species assumed)": "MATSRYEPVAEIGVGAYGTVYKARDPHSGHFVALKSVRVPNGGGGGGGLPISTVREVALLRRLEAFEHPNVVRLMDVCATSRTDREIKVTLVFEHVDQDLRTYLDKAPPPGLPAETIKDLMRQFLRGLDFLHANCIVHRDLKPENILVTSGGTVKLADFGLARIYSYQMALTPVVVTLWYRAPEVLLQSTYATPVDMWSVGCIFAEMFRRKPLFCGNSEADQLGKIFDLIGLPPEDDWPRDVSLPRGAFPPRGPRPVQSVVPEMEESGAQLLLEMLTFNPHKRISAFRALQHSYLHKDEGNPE", "T1 sequence (P24385 whole entry partner, species assumed)": "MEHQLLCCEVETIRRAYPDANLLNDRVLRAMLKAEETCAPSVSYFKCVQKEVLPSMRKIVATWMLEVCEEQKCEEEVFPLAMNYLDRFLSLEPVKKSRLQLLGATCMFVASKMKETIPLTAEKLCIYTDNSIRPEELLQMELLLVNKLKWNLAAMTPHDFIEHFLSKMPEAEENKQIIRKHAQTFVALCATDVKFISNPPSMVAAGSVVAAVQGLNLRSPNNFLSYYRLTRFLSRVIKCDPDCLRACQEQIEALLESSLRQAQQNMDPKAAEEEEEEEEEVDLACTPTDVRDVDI", "experiment": "CDK4/cyclinD1 kinase assay (Nanosyn, Caliper microfluidic)", "format": "biochemical", "procedure": "(§2) Selected compounds disclosed herein were tested in CDK4/cyclinD1, CDK6/CycD3 CDK2/CycA and CDK2/cyclinE kinase assays by Nanosyn (Santa Clara, Calif.) to determine their inhibitory effect on these CDKs. The assays were performed using microfluidic kinase detection technology (Caliper Assay Platform). The compounds were tested in 12-point dose-response format in singlicate at Km for ATP. Phosphoacceptor substrate peptide concentration used was 1 μM for all assays and Staurosporine was used as the reference compound for all assays. Specifics of each assay are as described below:\nCDK4/CyclinD1: Enzyme concentration: 1 nM; ATP concentration: 200 μM; Incubation time: 10 hr."}, "CDK2/CycE": {"target": "T2, CDK2/CycE (Homo sapiens, UniProt P24941)", "T2 construct": "Nanosyn (ran the assay as a service)", "experiment": "CDK2/cyclinE kinase assay (Nanosyn, Caliper microfluidic)", "format": "biochemical", "procedure": "as §2, with “assays.” for “assays. Specifics of each assay are as described below:”"}}, "note": "Where two headings read alike, the source gives them in different places."}
{"smiles": "CC(C)N1CCN(c2ccc(Nc3ncc4cc5n(c4n3)C3(CCCCC3)CNC5=O)nc2)CC1", "note": "[GG, 2′-((5-(4-isopropylpiperazin-1-yl)pyridin-2-yl)amino)-7′,8′-dihydro-6′H-spiro[cyclohexane-1,9′-pyrazino[1′,2′:1,5]pyrrolo[2,3-d]pyrimidin]-6′-one]", "values": [{"measurement": "growth (cells in S-phase by EdU)", "setting": "[1]", "result": "does not affect the growth"}, {"measurement": "proliferation (cells in S-phase by EdU)", "setting": "[2]", "result": "inhibits"}, {"measurement": "F (oral bioavailability)", "setting": "[3]", "result": 52, "unit": "%"}, {"measurement": "cycling bone marrow progenitors (EdU incorporation)", "setting": "bone marrow progenitors", "result": "significant protection of bone marrow progenitors"}, {"measurement": "EdU incorporation into HSPCs compared to control", "setting": "HSPCs", "result": "reduction in EdU incorporation at 12 hours which was starting to return to normal at 24 hours"}]}
{"smiles": "CC(=O)c1c(C)c2cnc(Nc3ccc(N4CCNCC4)cn3)nc2n(C2CCCC2)c1=O", "note": "[PD0332991, 6-acetyl-8-cyclopentyl-5-methyl-2-(5-piperazin-1-yl-pyridin-2-ylammino)-8H-pyrido-[2,3-d]-pyrimidin-7-one]", "values": [{"measurement": "duration of sustained reduction in HSPC and myeloid progenitor cell EdU incorporation", "setting": "[4]", "result": "greater than 36 hours"}, {"measurement": "time until HSPC and myeloid progenitor cells return to baseline cell division", "setting": "[4]", "result": 48, "unit": "h"}, {"measurement": "duration of cell cycle arrest of HSPC", "setting": "[5]", "result": "approximately one week"}, {"measurement": "time to return to baseline levels of cell division after wash out", "setting": "[6]", "result": "significantly longer"}, {"measurement": "growth (cells in S-phase by EdU)", "setting": "[1]", "result": "does not affect the growth"}, {"measurement": "proliferation (cells in S-phase by EdU)", "setting": "[2]", "result": "inhibits"}, {"measurement": "PK half-life", "setting": "[7]", "result": 27, "unit": "h"}, {"measurement": "PK half-life", "setting": "[8]", "result": 6, "unit": "h"}, {"measurement": "duration of sustained reduction in HSPCs", "setting": "HSPCs; single 150 mg/kg oral dose, FIG. 7", "result": "greater than 36 hours"}]}
{"smiles": "O=C1NCC2(CCCCC2)n2c1cc1cnc(Nc3ccc(N4CCNCC4)cn3)nc12", "note": "[Q, 2′-((5-(piperazin-1-yl)pyridin-2-yl)amino)-7′,8′-dihydro-6′H-spiro[cyclohexane-1,9′-pyrazino[1′,2′:1,5]pyrrolo[2,3-d]pyrimidin]-6′-one]", "values": [{"measurement": "oral bioavailability", "setting": "[3]", "result": "low"}, {"measurement": "EdU incorporation into HSPCs compared to control", "setting": "HSPCs", "result": "some reduction at 12 hours and started to return to baseline at 24 hours"}]}
{"smiles": "O=C1NCC2(CCCCC2)n2c1cc1cnc(Nc3ccc(N4CCC(N5CCOCC5)CC4)cn3)nc12", "note": "[U, 2′-((5-(4-morpholinopiperidin-1-yl)pyridin-2-yl)amino)-7′,8′-dihydro-6′H-spiro[cyclohexane-1,9′-pyrazino[1′,2′:1,5]pyrrolo[2,3-d]pyrimidin]-6′-one]", "values": [{"measurement": "F (oral bioavailability)", "setting": "[3]", "result": 67, "unit": "%"}]}
{"smiles": "CCC(C)[C@@H]1CNC(=O)c2cc3cnc(Nc4ccc(N5CCNCC5)cn4)nc3n21", "note": "(stereo partly shown) [VVV]", "values": [{"measurement": "IC50", "setting": "CDK4/CycD1", "result": 7.4, "unit": "nM"}, {"measurement": "IC50", "setting": "CDK2/CycE", "result": 4380, "unit": "nM"}]}
